Test results reported in the supplement of paper PMC10307832.

Columns and labels:
Experiment in all cases: relative viability (nuclei count vs DMSO), 5 days (fraction); higher = more cells survive
BI-D1870 + Luminespib = compound: CC(C)CCN1c2nc(Nc3cc(F)c(O)c(F)c3)ncc2N(C)C(=O)C1C [BI-D1870] + CCNC(=O)c1noc(-c2cc(C(C)C)c(O)cc2O)c1-c1ccc(CN2CCOCC2)cc1 [Luminespib] (partner 0.01 µM)
Method in brief: (§1)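 Relative viability equals treated-well nuclei counts divided by vehicle-well nuclei counts. Counts came from 4× images of lung cancer cell lines grown in 1536-well plates for 5 days after pin-tool dosing on the day after seeding. Dosing used one drug alone or a fixed anchor-drug dose plus five library-drug doses (not always all listed) in √10 steps, and values are medians of duplicate plates.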

BI-D1870 + Pictilisib = compound: CC(C)CCN1c2nc(Nc3cc(F)c(O)c(F)c3)ncc2N(C)C(=O)C1C [BI-D1870] + CS(=O)(=O)N1CCN(Cc2cc3nc(-c4cccc5[nH]ncc45)nc(N4CCOCC4)c3s2)CC1 [Pictilisib] (partner 1 µM)
Method in brief: as §1

Zebularine + OSI-027 = compound: O=c1ncccn1[C@@H]1O[C@H](CO)[C@@H](O)[C@H]1O [Zebularine] + COc1cccc2cc(-c3nc([C@H]4CC[C@H](C(=O)O)CC4)n4ncnc(N)c34)[nH]c12 [OSI-027] (partner 0.5 µM)
Method in brief: as §1

Zebularine + AZD7762 = compound: O=c1ncccn1[C@@H]1O[C@H](CO)[C@@H](O)[C@H]1O [Zebularine] + NC(=O)Nc1cc(-c2cccc(F)c2)sc1C(=O)N[C@H]1CCCNC1 [AZD7762] (partner 0.2 µM)
Method in brief: as §1

Cell Line	relative viability (BI-D1870 + Luminespib; first compound 0.04 µM)	relative viability (BI-D1870 + Luminespib; first compound 0.1265 µM)	relative viability (BI-D1870 + Luminespib; first compound 0.4 µM)	relative viability (BI-D1870 + Luminespib; first compound 1.265 µM)	relative viability (BI-D1870 + Luminespib; first compound 4 µM)	relative viability (BI-D1870 + Pictilisib; first compound 0.04 µM)	relative viability (BI-D1870 + Pictilisib; first compound 0.1265 µM)	relative viability (BI-D1870 + Pictilisib; first compound 0.4 µM)	relative viability (BI-D1870 + Pictilisib; first compound 1.265 µM)	relative viability (BI-D1870 + Pictilisib; first compound 4 µM)	relative viability (Zebularine + OSI-027; first compound 1 µM)	relative viability (Zebularine + OSI-027; first compound 3.162 µM)	relative viability (Zebularine + OSI-027; first compound 10 µM)	relative viability (Zebularine + OSI-027; first compound 31.62 µM)	relative viability (Zebularine + OSI-027; first compound 100 µM)	relative viability (Zebularine + AZD7762; first compound 1 µM)	relative viability (Zebularine + AZD7762; first compound 3.162 µM)	relative viability (Zebularine + AZD7762; first compound 10 µM)	relative viability (Zebularine + AZD7762; first compound 31.62 µM)	relative viability (Zebularine + AZD7762; first compound 100 µM)
NCI-H1975	0.27	0.101	0.308	0.257	0.208	0.297	0.276	0.288	0.299	0.208	0.845	0.695	0.383	0.335	0.23	0.747	0.748	0.549	0.499	0.345
NCI-H1993	1	0.629	0.972	1	0.834	0.864	0.704	0.769	0.71	0.622	0.532	0.545	0.52	0.543	0.498	0.76	0.881	0.625	0.671	0.493
NCI-H2085	0.483	0.452	0.503	0.407	0.364	0.439	0.494	0.413	0.518	0.558	0.737	0.537	0.602	0.769	0.516	1.11	1.07	0.788	1.13	0.66
NCI-H2087	0.165	0.18	0.206	0.213	0.186	0.963	0.867	0.86	1.03	0.665	0.379	0.457	0.286	0.508	0.27	1.55	1.38	0.735	0.794	0.465
NCI-H2126	0.899	0.767	0.866	0.915	0.769	0.556	0.491	0.45	0.461	0.386	0.721	0.718	0.619	0.8	0.602	0.988	0.963	0.673	0.968	0.691
NCI-H2170	0.817	0.723	0.751	0.65	0.67	0.287	0.333	0.347	0.301	0.302	0.86	0.63	0.569	0.678	0.432	0.914	0.982	0.771	0.938	0.393
NCI-H2347	0.738	0.376	0.367	0.48	0.402	0.797	0.466	0.662	0.649	0.44	0.444	0.412	0.443	0.424	0.393	0.858	0.788	0.609	0.462	0.305
NCI-H2405	0.711	0.577	0.68	0.883	0.54	0.549	0.479	0.442	0.458	0.418	0.672	0.597	0.592	0.676	0.547	0.798	0.792	0.545	0.875	0.688
NCI-H3122	0.0791	0.0919	0.0942	0.11	0.124	0.632	0.434	0.604	0.653	0.62	1.24	1.03	0.603	1.03	0.755	1.05	1.12	0.846	1.04	1.02
PC-3 [JPC-3]	0.783	0.645	0.717	0.825	0.677	0.768	0.71	0.699	0.793	0.645	0.832	0.701	0.554	0.663	0.656	0.933	0.944	0.618	0.826	0.611
PC-14	0.237	0.279	0.126	0.233	0.119	0.769	0.688	0.557	0.537	0.438	0.778	0.437	0.146	0.121	0.0877	0.471	0.324	0.141	0.144	0.14
RERF-LC-KJ	1.42	1.16	1.22	1.3	0.552	0.546	0.501	0.451	0.597	0.459	0.715	0.523	0.51	0.548	0.575	1.11	1	0.896	1.13	0.959
